Assay results reported in patent US12709610B2, “Preparation method for hepatitis B virus nucleocapsid inhibitor” (Shanghai Zhimeng Biopharma, Inc., priority 2021, dated 2026).

Test: Ames assay (genotoxicity)
Assay type: cell-based
Conditions: synthetic intermediates of the last three steps

In the case of `NC(=O)Nc1ccc(CCN2C(=O)CO[C@@H]2c2cn(-c3ccc(Br)cc3)nc2-c2ccc(F)cc2)cc1I` [Compound 9], the Ames assay result is reported as “negative”.

With `NC(=O)Nc1ccc(CCN2C(=O)CO[C@@H]2c2cn(-c3ccc(Br)cc3)nc2-c2ccc(F)cc2)cc1` [Compound 17] the Ames assay result was “negative”.
